Experimental data from ChEMBL document CHEMBL3797190, “Development of 3,5-Dinitrobenzylsulfanyl-1,3,4-oxadiazoles and Thiadiazoles as Selective Antitubercular Agents Active Against Replicating and Nonreplicating Mycobacterium tuberculosis” (J Med Chem, 2016).
Converted amounts (≈) assume the structure as drawn.

Columns and labels:
Assay type in all cases: functional
[1] = test system: Mycobacterium tuberculosis; experiment: Antimycobacterial activity against Mycobacterium tuberculosis CNCTC My 331/88 after 14 days by microdilution method; settings: CNCTC My 331/88, 336 h
Klebsiella pneumoniae [2] = experiment: Antibacterial activity against ESBL producing Klebsiella pneumoniae J 14368/08 after 24 to 48 hrs by broth microdilution method
[3] = test system: Trichophyton mentagrophytes; experiment: Antifungal activity against Trichophyton mentagrophytes 445 after 72 to 120 hrs by broth microdilution method
Staphylococcus aureus [4] = experiment: Antibacterial activity against methicillin-resistant Staphylococcus aureus H 5996/08 after 24 to 48 hrs by broth microdilution method
Mycobacterium avium [5] = experiment: Antimycobacterial activity against Mycobacterium avium CNCTC My 330/88 after 21 days by microdilution method; settings: CNCTC My 330/88, 504 h
Mycobacterium kansasii [6] = experiment: Antimycobacterial activity against Mycobacterium kansasii CNCTC My 235/80 after 7 days by microdilution method; settings: CNCTC My 235/80, 168 h
Klebsiella pneumoniae [7] = experiment: Antibacterial activity against Klebsiella pneumoniae D 11750/08 after 24 to 48 hrs by broth microdilution method
Enterococcus faecalis = experiment: Antibacterial activity against Enterococcus faecalis J 14365/08 after 24 to 48 hrs by broth microdilution method
Pseudomonas aeruginosa = experiment: Antibacterial activity against Pseudomonas aeruginosa ATCC 9027 after 24 to 48 hrs by broth microdilution method
Staphylococcus aureus [8] = experiment: Antibacterial activity against Staphylococcus aureus ATCC 6538 after 24 to 48 hrs by broth microdilution method
Nakaseomyces glabratus = experiment: Antifungal activity against Candida glabrata 20/I after 24 to 48 hrs by broth microdilution method
Mycobacterium kansasii [9] = experiment: Antimycobacterial activity against Mycobacterium kansasii CNCTC My 6509/96 after 7 days by microdilution method; settings: CNCTC My 6509/96, 168 h
Lichtheimia corymbifera = experiment: Antifungal activity against Absidia corymbifera 272 after 24 to 48 hrs by broth microdilution method
Candida tropicalis = experiment: Antifungal activity against Candida tropicalis 156 after 24 to 48 hrs by broth microdilution method
[10] = test system: Mycobacterium tuberculosis; experiment: Antimycobacterial activity against Mycobacterium tuberculosis CNCTC My 331/88 after 21 days by microdilution method; settings: CNCTC My 331/88, 504 h
Mycobacterium avium [11] = experiment: Antimycobacterial activity against Mycobacterium avium CNCTC My 330/88 after 14 days by microdilution method; settings: CNCTC My 330/88, 336 h
Mycobacterium kansasii [12] = experiment: Antimycobacterial activity against Mycobacterium kansasii CNCTC My 6509/96 after 14 days by microdilution method; settings: CNCTC My 6509/96, 336 h
Escherichia coli = experiment: Antibacterial activity against Escherichia coli ATCC 8739 after 24 to 48 hrs by broth microdilution method
[13] = test system: Staphylococcus epidermidis; experiment: Antibacterial activity against Staphylococcus epidermidis H 6966/08 after 24 to 48 hrs by broth microdilution method
Candida albicans = experiment: Antifungal activity against Candida albicans ATCC 44859 after 24 to 48 hrs by broth microdilution method
Aspergillus fumigatus = experiment: Antifungal activity against Aspergillus fumigatus 231 after 24 to 48 hrs by broth microdilution method
Mycobacterium kansasii [14] = experiment: Antimycobacterial activity against Mycobacterium kansasii CNCTC My 6509/96 after 21 days by microdilution method; settings: CNCTC My 6509/96, 504 h
Mycobacterium kansasii [15] = experiment: Antimycobacterial activity against Mycobacterium kansasii CNCTC My 235/80 after 21 days by microdilution method; settings: CNCTC My 235/80, 504 h
Mycobacterium kansasii [16] = experiment: Antimycobacterial activity against Mycobacterium kansasii CNCTC My 235/80 after 14 days by microdilution method; settings: CNCTC My 235/80, 336 h
Trichosporon asahii = experiment: Antifungal activity against Trichosporon asahii 1188 after 24 to 48 hrs by broth microdilution method
Pichia kudriavzevii = experiment: Antifungal activity against Candida krusei E28 after 24 to 48 hrs by broth microdilution method

SMILES	MIC99 [1]	MIC95 (Klebsiella pneumoniae [2])	MIC50 [3]	MIC95 (Staphylococcus aureus [4])	MIC99 (Mycobacterium avium [5])	MIC99 (Mycobacterium kansasii [6])	MIC95 (Klebsiella pneumoniae [7])	MIC95 (Enterococcus faecalis)	MIC95 (Pseudomonas aeruginosa)	MIC95 (Staphylococcus aureus [8])	MIC80 (Nakaseomyces glabratus)	MIC99 (Mycobacterium kansasii [9])	MIC50 (Lichtheimia corymbifera)	MIC80 (Candida tropicalis)	MIC99 [10]	MIC99 (Mycobacterium avium [11])	MIC99 (Mycobacterium kansasii [12])	MIC99 (Mycobacterium kansasii [14])	MIC99 (Mycobacterium kansasii [15])	MIC99 (Mycobacterium kansasii [16])	other results
CCCCCCCCCCCc1nnc(SCc2cc([N+](=O)[O-])cc([N+](=O)[O-])c2)o1	0.25 µM (≈ 0.109 µg/mL)	> 125 µM	> 125 µM	> 125 µM	8 µM (≈ 3.49 µg/mL)	0.125 µM (≈ 0.0546 µg/mL)	> 125 µM	> 125 µM	> 125 µM	> 125 µM	> 125 µM	0.25 µM (≈ 0.109 µg/mL)	> 125 µM	> 125 µM	0.25 µM (≈ 0.109 µg/mL)	4 µM (≈ 1.75 µg/mL)	0.25 µM (≈ 0.109 µg/mL)	0.25 µM (≈ 0.109 µg/mL)	0.25 µM (≈ 0.109 µg/mL)	0.25 µM (≈ 0.109 µg/mL)	MIC95 (Escherichia coli): > 125 µM; MIC95 [13]: > 125 µM; MIC80 (Candida albicans): > 125 µM; MIC50 (Aspergillus fumigatus): > 125 µM; MIC80 (Trichosporon asahii): > 125 µM; MIC80 (Pichia kudriavzevii): > 125 µM
O=[N+]([O-])c1cc(CSc2nnc(-c3ccc(Cl)cc3)o2)cc([N+](=O)[O-])c1		> 125 µM	> 125 µM	> 125 µM	> 125 µM		> 125 µM	> 125 µM	> 125 µM	> 125 µM	> 125 µM		> 125 µM	> 125 µM		> 125 µM		0.5 µM (≈ 0.196 µg/mL)			MIC95 (Escherichia coli): > 125 µM; MIC95 [13]: > 125 µM; MIC80 (Candida albicans): > 125 µM; MIC50 (Aspergillus fumigatus): > 125 µM; MIC80 (Trichosporon asahii): > 125 µM; MIC80 (Pichia kudriavzevii): > 125 µM
Cc1cc(C)cc(-c2nnc(SCc3cc([N+](=O)[O-])cc([N+](=O)[O-])c3)o2)c1	0.06 µM (≈ 0.0232 µg/mL)				> 32 µM	0.25 µM (≈ 0.0966 µg/mL)						0.5 µM (≈ 0.193 µg/mL)			0.06 µM (≈ 0.0232 µg/mL)	> 32 µM	1 µM (≈ 0.386 µg/mL)	2 µM (≈ 0.773 µg/mL)	1 µM (≈ 0.386 µg/mL)	0.5 µM (≈ 0.193 µg/mL)	
O=[N+]([O-])c1ccc(CSc2nnc(-c3ccc(Cl)cc3)o2)c([N+](=O)[O-])c1	2 µM (≈ 0.786 µg/mL)	> 125 µM	> 125 µM	> 125 µM	16 µM (≈ 6.28 µg/mL)	2 µM (≈ 0.786 µg/mL)	> 125 µM	> 125 µM	> 125 µM	> 125 µM	> 125 µM	4 µM (≈ 1.57 µg/mL)	> 125 µM	> 125 µM	2 µM (≈ 0.786 µg/mL)	8 µM (≈ 3.14 µg/mL)	8 µM (≈ 3.14 µg/mL)	8 µM (≈ 3.14 µg/mL)	4 µM (≈ 1.57 µg/mL)	4 µM (≈ 1.57 µg/mL)	MIC95 (Escherichia coli): > 125 µM; MIC95 [13]: > 125 µM; MIC80 (Candida albicans): > 125 µM; MIC50 (Aspergillus fumigatus): > 125 µM; MIC80 (Trichosporon asahii): > 125 µM; MIC80 (Pichia kudriavzevii): > 125 µM
Cc1cc(C)cc(-c2nnc(SCc3cc([N+](=O)[O-])cc([N+](=O)[O-])c3)s2)c1	0.125 µM (≈ 0.0503 µg/mL)				> 16 µM	0.25 µM (≈ 0.101 µg/mL)						0.25 µM (≈ 0.101 µg/mL)			0.125 µM (≈ 0.0503 µg/mL)	> 16 µM	0.5 µM (≈ 0.201 µg/mL)	0.5 µM (≈ 0.201 µg/mL)	1 µM (≈ 0.402 µg/mL)	1 µM (≈ 0.402 µg/mL)	
COc1cc(OC)cc(-c2nnc(SCc3cc([N+](=O)[O-])cc([N+](=O)[O-])c3)o2)c1	0.125 µM (≈ 0.0523 µg/mL)				16 µM (≈ 6.69 µg/mL)	0.125 µM (≈ 0.0523 µg/mL)						0.125 µM (≈ 0.0523 µg/mL)			0.125 µM (≈ 0.0523 µg/mL)	16 µM (≈ 6.69 µg/mL)	0.5 µM (≈ 0.209 µg/mL)	1 µM (≈ 0.418 µg/mL)	0.5 µM (≈ 0.209 µg/mL)	0.25 µM (≈ 0.105 µg/mL)	
O=[N+]([O-])c1ccc(CSc2nnc(-c3ccc(Cl)cc3)s2)c([N+](=O)[O-])c1	2 µM (≈ 0.818 µg/mL)	> 125 µM	> 125 µM	> 125 µM	8 µM (≈ 3.27 µg/mL)	1 µM (≈ 0.409 µg/mL)	> 125 µM	> 125 µM	> 125 µM	> 125 µM	> 125 µM	1 µM (≈ 0.409 µg/mL)	> 125 µM	> 125 µM	4 µM (≈ 1.64 µg/mL)	4 µM (≈ 1.64 µg/mL)	2 µM (≈ 0.818 µg/mL)	4 µM (≈ 1.64 µg/mL)	4 µM (≈ 1.64 µg/mL)	2 µM (≈ 0.818 µg/mL)	MIC95 (Escherichia coli): > 125 µM; MIC95 [13]: > 125 µM; MIC80 (Candida albicans): > 125 µM; MIC50 (Aspergillus fumigatus): > 125 µM; MIC80 (Trichosporon asahii): > 125 µM; MIC80 (Pichia kudriavzevii): > 125 µM
